The text below walks through data of patent US6407064B2, “Aminoalcohol derivative and medicament comprising the same” (Seikagaku Corporation, priority 1999, dated 2002).

For data set [1], the system named is cultured neurocytes of rat fetal cerebral cortex. The experiment in a line: Activity of accelerating synapse formation (intracellular calcium ion level, fura-2). The note with it: relative value, L-PDMP regarded as 100; compound 20 μM; assay on 10th day of culture. It is filed as cell-based. The protocol:
The activity of accelerating synapse formation was determined by measuring change of an intracellular calcium ion level resulted from the synchronized spontaneous ignition of neurocytes which is considered to show synapse activities by means of an intracellular calcium ion multipoint observation system using a calcium ion fluorescence indicator, fura-2.
Concretely, rat fetuses at the 18th day of pregnancy were taken out from Wistar rats (available from Japan SLC), and cerebral cortices of the fetuses were taken out and cut into small pieces. After having been treated with papain (manufactured by Worthington Biochemical) at 37° C. for 30 minutes, the pieces were suspended into a Dulbecco modified Eagle's medium containing 5% bovine neonatal serum and 5% equine serum and the cortices were dissociated into single cells with Cell Striner (70 μm, Falcon). Then, the cells were inoculated into a flexiperm plate coated with 0.5% polyethyleneimine (1.0×10^6 cells/500 μl/well), and was cultured in 7% CO2 incubator at 37° C. The medium was exchanged on 2nd, 5th, and 8th days after the culture had been started. The activity of the compound of the present invention was measured using the primary culture. The compound was added at the time when the medium was exchanged and the concentration of the compound was maintained to be 20 μM. Assay was carried out on 10th day after the culture had been started.
(2) Measurement of Activity of Accelerating Synapse Formation
Concretely, after the medium of each well where cells were cultured was substituted with basic salt solution (BSS), 3 μl of a DMSO solution (1 mg/ml) of a calcium ion fluorescence indicator fura-2 was added, and the whole was kept at 37° C. for 1 hour.
In general terms: A change in cytosolic calcium serves as a functional read-out for many receptors and channels.

The subject of data set [2] is enzyme for ganglioside GM3 synthesis, mouse B16 melanoma cell. The experiment in a line: Activity of enzyme for ganglioside GM3 synthesis (14C-Gal incorporated in total lipid fraction). The data set is classed as cell-based. The note with it: relative value, control regarded as 100; test compound 24 μM, 24 hours; 14C-Gal incorporation. The protocol: The gangliosides produced by mouse B16 melanoma cell are almost composed of ganglioside GM3. Therefore, the activity of the enzyme for ganglioside GM3 synthesis can be determined conveniently by measuring the amount of ^14C-Gal incorporated in a total lipid-extracted fraction through a liquid layer partition method.
A liquid where the cells of mouse B16 melanoma were suspended was prepared with Dulbecco modified Eagle's medium containing 10% bovine fetal serum, inoculated into a 12-well plate in an amount of 2.0×10^5 cells/ml/well, and cultured in 5% CO2 incubator at 37° C. The treatment with a test compound (24 μM) and the addition of ^14C-Gal (22.2 kBq/11.7 nmol/6 μl/well) were started through the exchange of total amount of the medium 24 hours after the culture was started. Twenty-four hours after the treatment with the test compound was started, the culture mixture was treated with PBS containing 0.02% EDTA and PBS containing 0.25% trypsin successively to recover the cells.
Then, a mixed solvent of chloroform:methanol=2:1 (3 ml) was added to the cell pellet and, after the subjection to an ultrasonication for 30 minutes, the supernatant was recovered. Furthermore, a mixed solvent of chloroform:methanol=1:1 (3 ml) was added to the residual pellet after the recovery of the supernatant, and a similar operation was carried out. The resulting supernatant was combined with the first supernatant and the whole was evaporated to dryness under a nitrogen stream. A desalinated water (1.0 ml) was added to the total lipid-extracted fraction. After having been subjected to an ultrasonication for 1 minute, the mixture was transferred into a dialysis tube and dialyzed against water for 2 days. The sample after the dialysis was transferred into a vial for liquid scintillation counter and, after the addition of scintillator, the activity of incorporating ^14C-Gal was measured on scintillation counter.
The values of activity of the compounds of the present invention are shown as relative values obtained by calculation on the basis that the value of a control (a group where no test compound was added) is regarded as 100 in Table 3 below.

A short description of data set [3]: Tissue distribution: concentration in plasma and skeletal muscle after oral or intravenous administration. The note with it: rat. It is filed as in vivo. As for the experimental part:
Tissue distribution of the compound in Example 19 was compared with that of L-PDMP using 6-8 week old Wistar male rats.
As oral administration, a physiological saline containing 20 mg/ml of a test substance was administered at 100 mg/5 ml/kg, and as intravenous administration, a physiological saline containing 1.25 mg/ml of a test substance was administered to the cervical vein at 5 mg/4 ml/kg.
After the predetermined time had passed since the above administration, blood was collected from the rat cervical vein, a 3.8% sodium citrate solution was added thereto at 1/10 volume, followed by centrifugation at 3,000 rpm for 15 minutes to obtain the supernatant as a plasma sample.
Also, after the predetermined time had passed since the above administration, the skeletal muscle was collected from the femoral region of both hind legs, ice water was added thereto at 4 ml/g tissue, followed by homogenization, and the same volume of acetonitrile was added thereto, followed by vigorously stirring and centrifugation at 4000 rpm for 10 minutes to obtain the supernatant as a skeletal muscle sample.
The plasma and skeletal muscle samples were extracted by OASIS HLB solid phase extraction column (manufactured by Waters), and the concentration of the test compound in the plasma and the muscle was determined by high performance liquid chromatography (HPLC). The conditions of HPLC analysis were as follows:
Detection wavelength: 218 nm
Column: DAISO PACK SP-120-5-ODS-BP
Column temperature: 40° C.
Mobile phase: 0.1% trifluoroacetic acid solution:methanol=36:64 (for L-PDMP); 0.1% trifluoroacetic acid solution:methanol=48:52 (for the compound in Example 19)
The concentrations in the plasma and skeletal muscle of the compound in Example 19 and L-PDMP after the predetermined time has been passed since the administration of the test compounds are shown in Tables 4-6 below. The values are the mean values of at least two test samples. Specifically, Table 4, Table 5, and Table 6 show the concentrations in the plasma after the oral administration of 100 mg/kg, the concentrations in the skeletal muscle after the oral administration of 100 mg/kg, and the concentrations in the plasma after the intravenous administration of 5 mg/kg, respectively.

For the compound `CCCCCCNC(=O)C1CCC(C(=O)N[C@@H](CN2CCOCC2)[C@@H](O)c2ccccc2)CC1` (stereo partly drawn) [Example 17, (1S,2S)-2-(cyclohexane-4-hexylcarbamoyl-1-carbonyl)amino-3-morpholino-1-phenyl-1-propanol], in data set [1], the “Activity of synapse formation” value is reported as 90.0.

For `O=C(CNC(=O)OCc1ccccc1)N[C@@H](CN1CCOCC1)[C@@H](O)c1ccccc1` [Example 1], the “Activity of accelerating glycolipid biosynthesis (Test Example 2)” value (from here on “Activity … (Test Example 2)”) in data set [2] came to 85.2.

As for `O=C(CNC(=O)OCc1ccccc1)NCC(=O)N[C@@H](CN1CCOCC1)[C@@H](O)c1ccccc1` [Example 2], in data set [2], the “Activity … (Test Example 2)” value is 130.9.

Regarding `CCCCOCCOCC(=O)N[C@@H](CN1CCOCC1)[C@@H](O)c1ccccc1` [Example 19, (1S,2S)-2-(3,6-dioxadecanoyl)amino-3-morpholino-1-phenyl-1-propanol], the “Activity of synapse formation” value in data set [1] amounted to 90.8. In addition, the concentration at 10 min in data set [3] (male, Wistar, plasma, intravenous administration of 5 mg/kg, 10 min) amounted to 2240 ng/mL. The concentration at 25 min in data set [3] (male, Wistar, plasma, intravenous administration of 5 mg/kg, 25 min) was determined as 560 ng/mL. In addition, the concentration at 5 min in data set [3] (male, Wistar, plasma, oral administration of 100 mg/kg, 5 min) came to 2620 ng/mL. Moreover, the concentration at 15 min in data set [3] (male, Wistar, plasma, oral administration of 100 mg/kg, 15 min) turned out to be 8660 ng/mL. In data set [3] (male, Wistar, plasma, oral administration of 100 mg/kg, 30 min), this compound showed a concentration at 30 min of 6140 ng/mL. In data set [3] (male, Wistar, plasma, oral administration of 100 mg/kg, 60 min), this compound displayed a concentration at 60 min of 950 ng/mL. For the same compound, in data set [3] (in words), the “retention in plasma and skeletal muscle compared with L-PDMP” value was “kept in the plasma and skeletal muscle for a longer time”; the “tissue distribution compared with L-PDMP” value is listed as “higher tissue distribution than L-PDMP”.

Take `CCCCN(C)C(=O)CCC(=O)N[C@@H](CN1CCOCC1)[C@@H](O)c1ccccc1` [Example 10, (1S,2S)-2-(N-butyl-N-methylamino)butanedioylamino-3-morpholino-1-phenyl-1-propanol]: the “Activity of synapse formation” value in data set [1] stood at 91.7.

`CCNC(=O)CCCCC(=O)N[C@@H](CN1CCOCC1)[C@@H](O)c1ccccc1` [Example 11, (1S,2S)-2-(5-ethylcarbamoyl)pentanoylamino-3-morpholino-1-phenyl-1-propanol]: the “Activity of synapse formation” value in data set [1] amounted to 93.3.

Consider `CC(=O)NC1C(O)CC(CCCCCCCCC(=O)N[C@@H](CN2CCOCC2)[C@@H](O)c2ccccc2)(C(=O)O)OC1C(O)C(O)CO` (stereo partly drawn) [Example 28, (1S,2S)-2-(9-sialylnonanoyl)amino-3-morpholino-1-phenyl-1-propanol], for which the “Activity of synapse formation” value in data set [1] is given as 95.8.

Take `CCCCOC(=O)NCC(=O)N[C@@H](CN1CCOCC1)[C@@H](O)c1ccccc1` [Example 3]: the “Activity … (Test Example 2)” value in data set [2] was 98.6.

In the case of `N[C@@H](CCCCNC(=O)CCCCCCCCC(=O)N[C@@H](CN1CCOCC1)[C@@H](O)c1ccccc1)C(=O)O` [Example 27, (1S,2S,16S)-2-(16-amino-11-aza-10-oxo-16-carboxyhexadecanoyl)amino-3-morpholino-1-phenyl-1-propanol], the “Activity of synapse formation” value in data set [1] amounted to 100.0.

For the compound `CC(=O)CCCCCC(=O)N[C@@H](CN1CCOCC1)[C@@H](O)c1ccccc1` [Example 22, (1S,2S)-2-(7-oxooctanoyl)amino-3-morpholino-1-phenyl-1-propanol], in data set [1], the “Activity of synapse formation” value was determined as 88.3.

For `N[C@@H](CCCCNC(=O)CCCCC(=O)N[C@@H](CN1CCOCC1)[C@@H](O)c1ccccc1)C(=O)O` [Example 26, (1S,2S,12S)-2-(12-amino-7-aza-6-oxo-12-carboxydodecanoyl)amino-3-morpholino-1-phenyl-1-propanol], the “Activity of synapse formation” value in data set [1] is given as 95.0.

For the compound `CCCCNC(=O)CCCCCCCCC(=O)N[C@@H](CN1CCOCC1)[C@@H](O)c1ccccc1` [Example 14, (1S,2S)-2-(9-butylcarbamoyl)nonanoylamino-3-morpholino-1-phenyl-1-propanol], in data set [1], the “Activity of synapse formation” value stood at 94.2.

On to “(1S,2S)-2-(5-hexylcarbamoyl)pentanoylamino-3-morpholino-1-phenyl-1-propanol [Example 13]”, for which the “Activity of synapse formation” value in data set [1] came to 95.0.

Turning to `CCCCCCNC(=O)CCCCCCCCC(=O)N[C@@H](CN1CCOCC1)[C@@H](O)c1ccccc1` [Example 15, (1S,2S)-2-(9-hexylcarbamoyl)nonanoylamino-3-morpholino-1-phenyl-1-propanol], the “Activity of synapse formation” value in data set [1] is 90.0.

In the case of `O=C(CCCCCCCCCO)N[C@@H](CN1CCOCC1)[C@@H](O)c1ccccc1` [Example 23, (1S,2S) -2-(10-hydroxydecanoyl) amino-3-morpholino-1-phenyl-1-propanol], in data set [1], the “Activity of synapse formation” value is recorded as 85.8.

For “(1S,2S)-2-(5-cyclohexylcarbamoyl)pentanoylamino-3-morpholino-1-phenyl-1-propanol [Example 12]”, in data set [1], the “Activity of synapse formation” value is 80.0.

`CCCCCC(=O)NCC(=O)N[C@@H](CN1CCOCC1)[C@@H](O)c1ccccc1` [Example 4, (1S,2S)-2-(n-hexanoyl)glycylamino-3-morpholino-1-phenyl-1-propanol]: the “Activity … (Test Example 2)” value in data set [2] is 71.3.

Turning to `CCOC(=O)CCCCC(=O)N[C@@H](CN1CCOCC1)[C@@H](O)c1ccccc1` [Example 6, (1S,2S)-2-ethoxyhexanedioylamino-3-morpholino-1-phenyl-1-propanol], in data set [1], the “Activity of synapse formation” value is recorded as 87.5.

For the compound `CCCCCCOCCOCC(=O)N[C@@H](CN1CCOCC1)[C@@H](O)c1ccccc1` [Example 21, (1S,2S)-2-(3,6-dioxadodecanoyl)amino-3-morpholino-1-phenyl-1-propanol], in data set [1], the “Activity of synapse formation” value amounted to 97.5.
